ChEMBL document CHEMBL1201862, “PubChem BioAssay data set” (2004)
Active and inactive are the calls of the source.

Key:
[1] = NIH-3T3 fibroblast cytotoxicity, dose response, cytotoxicity control, cell-based, fluorescence, Alamar Blue, secondary assay (AID 2327); type: functional;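 further: NIH-3T3 mouse fibroblasts cultured with fluconazole at 8 µg/mL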
[2] = C. albicans growth with fluconazole, confirmation, fluorescence, retest (AID 2467); type: functional, cell-based
[3] = inhibitors of intracellular T. cruzi replication, confirmation, NIH3T3 host cells, beta-gal luminescence (AID 2044); type: functional, cell-based;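 further: intracellular parasites grown in NIH/3T3 mouse fibroblasts as host cells; luminescent beta-galactosidase reporter signal from transgenic T. cruzi replicating inside host cells; inhibitors lower the luminescence signal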
[4] = cytotoxicity toward NIH3T3 fibroblasts, dose response, counter-screen, cell-based, ATP luminescence, mouse fibroblasts (AID 2010); type: functional;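 further: cells exposed to compound for about 90 hours before reading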
Fatty acid synthase [5] = target: T1, Fatty acid synthase (Homo sapiens, UniProt P49327); experiment: FAS thioesterase domain inhibitors, dose response, biochemical, endpoint fluorescence intensity, uHTS hits (AID 624327); type: functional;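 further: fluorescence from hydrolysis of an O-methyl fluorescein acyl ester substrate by the enzyme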
Fatty acid synthase [6] = target: T1, Fatty acid synthase; experiment: FAS thioesterase domain inhibitors, dose response, biochemical, kinetic fluorescence intensity (AID 624326); type: functional;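 further: rate of fluorescence rise from hydrolysis of a fluorogenic O-methyl fluorescein ester substrate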
[7] = Luminescence Cell-Based Dose Confirmation HTS to Identify Activators of 5'UTR Stem-Loop Driven Alpha-Synuclein mRNA Translation in H4 Neuroglioblastoma Cells. [Related pubchem assays: 1829 (Project Summary), 1814 (Primary HTS)]; type: functional
[8] = Luminescence Cell-Based Dose Response HTS to Identify Activators of Luciferase Translation or Activity in H4 […] Cells. [Related pubchem assays: 1829 (Project Summary), 1814 (Primary HTS)]; type: functional
H4 = experiment: Luminescence Cell-Based Dose Response HTS to Identify Activators of 5'UTR Stem-Loop Driven Prion Protein mRNA Translation in H4 Neuroglioblastoma Cells. [Related pubchem assays: 1829 (Project Summary), 1814 (Primary HTS)]; type: functional; details: Homo sapiens
INS1 = experiment: beta cell apoptosis inhibitors, cytokine rescue, dose response, luminescence, retest (AID 449756); type: functional, cell-based; details: Rattus norvegicus;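 further: cell death triggered by IL-1 beta plus TNF-alpha plus IFN-gamma mixture; protective hits raise ATP signal compared with cytokine alone wells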
[9] = HEp-2 cell cytotoxicity, dose response, cytotoxicity control for RSV inhibitor project, HTS (AID 2410); type: functional; details: human respiratory syncytial virus

T1 sequence (P49327 whole entry, the tested form may be a part): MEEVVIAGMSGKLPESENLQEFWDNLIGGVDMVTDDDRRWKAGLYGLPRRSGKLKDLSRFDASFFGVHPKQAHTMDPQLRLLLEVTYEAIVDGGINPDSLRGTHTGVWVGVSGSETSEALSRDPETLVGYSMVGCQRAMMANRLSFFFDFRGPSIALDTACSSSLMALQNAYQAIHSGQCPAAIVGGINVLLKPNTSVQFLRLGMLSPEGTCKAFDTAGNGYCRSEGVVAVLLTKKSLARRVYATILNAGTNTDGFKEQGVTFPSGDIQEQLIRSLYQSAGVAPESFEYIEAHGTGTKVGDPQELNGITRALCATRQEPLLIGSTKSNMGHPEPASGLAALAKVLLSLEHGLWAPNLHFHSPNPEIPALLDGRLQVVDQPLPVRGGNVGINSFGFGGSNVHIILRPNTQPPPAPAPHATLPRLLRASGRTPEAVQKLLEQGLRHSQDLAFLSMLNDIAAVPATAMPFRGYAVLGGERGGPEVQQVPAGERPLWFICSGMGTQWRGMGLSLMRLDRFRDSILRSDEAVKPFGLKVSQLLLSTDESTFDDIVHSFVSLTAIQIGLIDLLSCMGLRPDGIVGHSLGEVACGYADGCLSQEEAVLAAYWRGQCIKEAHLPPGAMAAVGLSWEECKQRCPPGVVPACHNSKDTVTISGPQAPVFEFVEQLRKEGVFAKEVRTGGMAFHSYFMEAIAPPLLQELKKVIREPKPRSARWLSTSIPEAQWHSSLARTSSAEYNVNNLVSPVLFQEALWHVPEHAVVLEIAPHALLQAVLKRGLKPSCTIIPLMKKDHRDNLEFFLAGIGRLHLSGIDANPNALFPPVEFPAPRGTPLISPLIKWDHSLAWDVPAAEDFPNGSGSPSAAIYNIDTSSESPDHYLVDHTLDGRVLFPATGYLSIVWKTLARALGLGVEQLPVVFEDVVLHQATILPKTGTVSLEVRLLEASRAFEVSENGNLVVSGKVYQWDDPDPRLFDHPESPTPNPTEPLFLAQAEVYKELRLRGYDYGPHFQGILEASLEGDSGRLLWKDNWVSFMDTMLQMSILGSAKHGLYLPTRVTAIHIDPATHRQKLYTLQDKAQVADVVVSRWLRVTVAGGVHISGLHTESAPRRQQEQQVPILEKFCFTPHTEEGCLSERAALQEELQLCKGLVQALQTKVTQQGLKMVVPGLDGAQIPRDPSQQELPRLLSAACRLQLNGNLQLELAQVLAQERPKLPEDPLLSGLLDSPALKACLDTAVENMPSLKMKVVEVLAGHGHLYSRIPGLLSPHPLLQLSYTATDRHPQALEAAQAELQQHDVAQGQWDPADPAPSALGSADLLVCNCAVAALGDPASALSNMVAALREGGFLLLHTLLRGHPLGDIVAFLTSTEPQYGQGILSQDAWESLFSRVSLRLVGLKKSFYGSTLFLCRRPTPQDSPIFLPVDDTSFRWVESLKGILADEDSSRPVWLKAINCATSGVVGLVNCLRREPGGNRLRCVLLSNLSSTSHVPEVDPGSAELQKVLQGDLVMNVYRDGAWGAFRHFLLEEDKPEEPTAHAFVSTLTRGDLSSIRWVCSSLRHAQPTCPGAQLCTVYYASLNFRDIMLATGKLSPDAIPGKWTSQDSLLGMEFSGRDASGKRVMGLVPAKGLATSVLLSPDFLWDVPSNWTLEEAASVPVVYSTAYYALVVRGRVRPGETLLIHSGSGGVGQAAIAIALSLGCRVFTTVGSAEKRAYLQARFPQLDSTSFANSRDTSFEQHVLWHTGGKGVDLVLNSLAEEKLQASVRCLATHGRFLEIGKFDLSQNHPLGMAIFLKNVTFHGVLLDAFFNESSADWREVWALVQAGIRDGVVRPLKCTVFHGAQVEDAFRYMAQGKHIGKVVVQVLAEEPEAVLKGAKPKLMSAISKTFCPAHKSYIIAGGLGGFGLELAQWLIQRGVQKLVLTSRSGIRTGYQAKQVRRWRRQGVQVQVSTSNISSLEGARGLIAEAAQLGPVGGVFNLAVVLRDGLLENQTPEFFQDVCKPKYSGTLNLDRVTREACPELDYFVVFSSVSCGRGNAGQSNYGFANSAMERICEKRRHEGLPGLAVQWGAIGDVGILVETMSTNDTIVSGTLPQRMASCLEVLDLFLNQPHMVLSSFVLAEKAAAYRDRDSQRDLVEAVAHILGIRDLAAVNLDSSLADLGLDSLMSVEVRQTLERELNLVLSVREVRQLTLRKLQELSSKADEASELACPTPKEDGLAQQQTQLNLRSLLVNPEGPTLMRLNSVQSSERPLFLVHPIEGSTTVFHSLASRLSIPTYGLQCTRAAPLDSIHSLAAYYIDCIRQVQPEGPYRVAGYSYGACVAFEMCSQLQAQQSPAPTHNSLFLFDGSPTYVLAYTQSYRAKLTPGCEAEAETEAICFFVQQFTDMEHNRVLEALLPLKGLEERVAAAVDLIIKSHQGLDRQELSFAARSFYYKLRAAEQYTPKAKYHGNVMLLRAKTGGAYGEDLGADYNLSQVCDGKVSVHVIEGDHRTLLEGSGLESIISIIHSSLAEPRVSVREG

CC[n+]1c(/C=C/N(C)c2ccccc2)oc2ccccc21
EC50 [1]: > 150 µM (inactive)
EC50 [2]: 3.58 µM (active)
EC50 [3]: 0.258 µM (active)
EC50 [4]: 16.9 µM (active)

CCCCC(=O)N/N=C/c1cc([N+](=O)[O-])ccc1N1CCOCC1
IC50 (Fatty acid synthase [5]): 4.56 µM (active)
IC50 (Fatty acid synthase [6]): 4.13 µM (active)

Cc1noc(C)c1NC(=O)Nc1cccc2c1O[C@H](CN(C)C(=O)NC1CCCCC1)[C@@H](C)CN([C@H](C)CO)C2=O
IC50 (Fatty acid synthase [5]): 2.47 µM (active)
IC50 (Fatty acid synthase [6]): 4.3 µM (active)

CN1C(=O)C2C=CC1C1C(=O)N(c3ccccc3)C(=O)C21 (stereo not given)
EC50 [7]: 0.128 µM (active)
EC50 [8]: 0.45 µM (active)
EC50 (H4): 0.209 µM (active)

O=C(NNc1ccc([N+](=O)[O-])cc1)c1ccccc1Cl
EC50 [1]: > 150 µM (inactive)
EC50 [2]: > 38 µM (not active)

O=C(/C=C/c1cccc([N+](=O)[O-])c1)N1CCN(c2ccc(F)cc2)CC1
IC50 (Fatty acid synthase [5]): 2.32 µM (active)
IC50 (Fatty acid synthase [6]): 4.93 µM (active)

CCCNC(=O)C12CCC(C)(c3nc4cc(C)c(C)cc4nc31)C2(C)C (stereo not given)
EC50 [1]: 113 µM (active)

Cn1nnnc1SCC(=O)Nc1nc2ccccc2s1
EC50 [7]: 8.16 µM (active)
EC50 [8]: 8.98 µM (active)
EC50 (H4): 33.4 µM (active)

Cc1cc(O)c2c(c1)C(=O)C13C(=C2O)C(=O)[C@H]2[C@@H](O)[C@@H]1[C@H]1[C@H](O)[C@@H]3C(=O)C3=C(O)c4c(O)cc(C)cc4C(=O)C312 (stereo not given in full)
AC50 (INS1): 7.65 µM (active)

Nc1ccc(C#Cc2c(-c3ccsc3)oc3ccc(N4CCOCC4)cc23)cc1
CC50 [9]: 31.5 µM (active)

COc1ccccc1N1CCN(C(=O)C(C)NC(=O)c2cccc([N+](=O)[O-])c2)CC1 (stereo not given)
IC50 (Fatty acid synthase [5]): 2.72 µM (active)
IC50 (Fatty acid synthase [6]): 1.48 µM (active)

CC(C)(C)CN1CCC(Oc2cccc(C(=O)NCCCOc3cccnc3)c2)CC1
AC50 (INS1): 1.25 µM (active)

CC(=O)c1cccc(-c2ccnc3c2CC(C(=O)Nc2cccc(OC(F)(F)F)c2)O3)c1 (stereo not given)
IC50 (Fatty acid synthase [5]): 9.72 µM (active)
IC50 (Fatty acid synthase [6]): 6.27 µM (active)

O=C(CC1C[C@H](C(=O)N2CCOCC2)[C@@]2(CCC3CCCC3)c3[nH]c4ccccc4c3CCN2C1=O)NCc1cccc(C(F)(F)F)c1 (stereo not given in full)
IC50 (Fatty acid synthase [5]): 4.98 µM (active)
IC50 (Fatty acid synthase [6]): 8.04 µM (active)

O=C(Nn1c(-c2ccc(Br)cc2)nc2ccccc2c1=O)c1ccc([N+](=O)[O-])cc1
IC50 (Fatty acid synthase [5]): 8.68 µM (active)
IC50 (Fatty acid synthase [6]): 7.74 µM (active)

O=C(COc1ccc2ccccc2c1)N1c2ccccc2Sc2ccccc21
CC50 [9]: 26.8 µM (active)

CN(C)c1ccc(N=Nc2ccccc2C(=O)OCC(=O)N(C)C2CCCCC2)cc1
EC50 [7]: 85.5 µM (active)
EC50 [8]: 84.2 µM (active)
EC50 (H4): 51.8 µM (active)

O=C(NCCC1=CCCCC1)c1ccc(Cl)c([N+](=O)[O-])c1
IC50 (Fatty acid synthase [5]): 11.7 µM (active)
IC50 (Fatty acid synthase [6]): 9.92 µM (active)

COc1c2c(cc3oc(=O)c4c5ccc(O)cc5oc4c13)OC(C)(C)CC2 [ISOGLYCYROL]
EC50 [7]: 0.274 µM (active)
EC50 [8]: 3.13 µM (active)

Cc1ccccc1N(C(=O)Cn1nnc(-c2cccs2)n1)C(C(=O)NCCC(C)C)c1ccco1 (stereo not given)
CC50 [9]: 40.4 µM (active)

CC(C)(C)Nc1nc(-c2ccc3c(c2)CCN3C(=O)C2CC2)cs1
CC50 [9]: 25.2 µM (active)
